The source of these data is patent US7632829B2, “Diazepan derivatives” (Hoffmann-La Roche Inc., priority 2006, dated 2009).

pIC50: −log10 of the molar value.

Usually pIC50 stands for the IC50 on a negative log10 scale, so that one unit is a factor of ten.

The target of the assay is T1, human chemokine receptor 2 isoform B (Homo sapiens, UniProt P41597).
T1 construct: host or cells: CHOK1-CCR2B-A5 (CHO-K1)
T1 sequence (P41597 1-360 isoform P41597-2): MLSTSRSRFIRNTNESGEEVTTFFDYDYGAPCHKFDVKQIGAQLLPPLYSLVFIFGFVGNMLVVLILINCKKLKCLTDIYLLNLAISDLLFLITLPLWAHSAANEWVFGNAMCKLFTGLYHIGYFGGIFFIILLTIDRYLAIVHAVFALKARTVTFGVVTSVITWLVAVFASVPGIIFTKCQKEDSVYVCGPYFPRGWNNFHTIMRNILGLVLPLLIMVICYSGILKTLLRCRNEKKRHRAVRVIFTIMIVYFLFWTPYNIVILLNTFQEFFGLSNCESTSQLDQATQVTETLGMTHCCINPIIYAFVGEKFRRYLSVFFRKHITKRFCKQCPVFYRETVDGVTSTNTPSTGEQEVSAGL
Put plainly: Calcium mobilization assay (FLIPR, CHOK1-CCR2B-A5 cells, 20 nM MCP-1). The conditions noted are these: Ca mobilisation assay, CCR2, antagonist activity vs 20 nM MCP-1. It counts as cell-based. In outline:
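FLIPR Fluo-4 calcium readout in CHO-K1 cells stably overexpressing human CCR2B; compounds first monitored 80 s for agonist activity, then after 20-30 min at 30 °C challenged with 20 nM MCP-1. Response is max minus basal fluorescence; antagonist value is concentration giving 50% inhibition of specific calcium increase.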
Background: Calcium flux is commonly read through the fluorescence of an indicator in the cells.
As to `CC1CCC(NCCN2CCN(C(=O)/C=C/c3ccc(Cl)c(Cl)c3)CCC2=O)CC1` (mixture of isomers) [Example 138, cis/trans-1-[(E)-3-(3,4-Dichloro-phenyl)-acryloyl]-4-{3-[(4-methyl-cyclohexyl)-amino]-ethyl}-[1,4]diazepan-5-one], the pIC50 was 5.90.

As to `COCC1CCCN(CCCN2CCN(C(=O)/C=C/c3ccc(Cl)c(Cl)c3)CCC2=O)C1` (racemic) [Example 236], the pIC50 is 6.25.

For `CC1(CO)CCN(CCCCN2CCN(C(=O)C=Cc3ccc(Cl)c(F)c3)CCC2=O)CC1O` (centres unmarked) [Example 411], the negative-log IC50 (pIC50) is 6.70.

In the case of `COC[C@H]1CCN(C[C@H](O)CN2CCN(C(=O)/C=C/c3ccc(Cl)c(Cl)c3)CCC2=O)C[C@H]1O` (mixture of isomers) [Example 329, 1-[(E)-3-(3,4-Dichloro-phenyl)-acryloyl]-4-[(S)-2-hydroxy-3-(cis-3-hydroxy-4-methoxymethyl-piperidin-1-yl)-propyl]-[1,4]diazepan-5-one], the pIC50 is 6.86.

Turning to `O=C(/C=C/c1ccc(Cl)c(Cl)c1)N1CCC(=O)N(CCCN2CCC(O)(c3ccncc3)CC2)CC1` [Example 53, 1-[(E)-3-(3,4-Dichloro-phenyl)-acryloyl]-4-[3-(4-hydroxy-3,4,5,6-tetrahydro-2H-[4,4′]bipyridinyl-1-yl)-propyl]-[1,4]diazepan-5-one], the pIC50 is 6.36.

As to `CC1(CO)CCCCN1CCCCN1CCN(C(=O)/C=C/c2ccc(F)c(Cl)c2)CCC1=O` (racemic) [Example 407], the pIC50 is 6.58.

In the case of `COCC1CCN(CCCN2CCN(C(=O)/C=C/c3ccc(Cl)c(Cl)c3)CCC2=O)CC1` [Example 247], the negative-log IC50 (pIC50) is 6.21.

With `C[N+]1(CCCN2CCN(C(=O)C=Cc3ccc(Cl)c(Cl)c3)CCC2=O)CCCCC1` [Example 154, 1-(3-{4-[3-(3,4-Dichloro-phenyl)-acryloyl]-7-oxo-[1,4]diazepan-1-yl}-propyl)-1-methyl-piperidinium iodide], the negative-log IC50 (pIC50) was 6.43.

Turning to `O=C(/C=C/c1ccc(Cl)c(Cl)c1)N1CCC(=O)N(CCCCN2CC(O)CCC2CO)CC1` (racemic) [Example 476], the pIC50 is 7.74.

For the compound `CC1(CO)CCCN1CC(O)CN1CCN(C(=O)C=Cc2ccc(Cl)c(Cl)c2)CCC1=O` (racemic) [Example 322], the pIC50 is 5.92.

Take `COCC1CN(CCCCN2CCN(C(=O)/C=C/c3ccc(Cl)c(Cl)c3)CCC2=O)CCC1O` (racemic) [Example 451]: the pIC50 was 6.17.

For `O=C(/C=C/c1ccc(Cl)c(F)c1)N1CCC(=O)N(CCCN2CCCCC2)CC1` [Example 13, 1-[(E)-3-(4-Chloro-3-fluoro-phenyl)-acryloyl]-4-(3-piperidin-1-yl-propyl)-[1,4]diazepan-5-one], the pIC50 was 6.14.

As for `O=C(C=Cc1ccc(Cl)c(Cl)c1)N1CCC(=O)N(CCCNC2CCC(O)(c3ccccn3)CC2)CC1` (stereo not drawn) [Example 65, trans-1-[(E)-3-(3,4-Dichloro-phenyl)-acryloyl]-4-[3-(4-hydroxy-4-pyridin-2-yl-cyclohexylamino)-propyl]-[1,4]diazepan-5-one], the pIC50 is 6.71.

As to `CC1C(O)CCCN1CCCCN1CCN(C(=O)C=Cc2ccc(F)c(Cl)c2)CCC1=O` (centres unmarked) [Example 388], the pIC50 is 6.42.

As for `O=C(/C=C/c1ccc(Cl)c(Cl)c1)N1CCC(=O)N(CCCCN2CCC(O)C3(CC3)C2)CC1` (racemic) [Example 457], the pIC50 was 6.55.

On to `C[C@@]1(CO)CCN(CCCN2CCN(C(=O)/C=C/c3ccc(F)c(Cl)c3)CCC2=O)C[C@H]1O` (racemic) [Example 220], for which the pIC50 is 6.77.

In the case of `O=C(/C=C/c1ccc(Cl)c(Cl)c1)N1CCC(=O)N(CCN2CCC(O)(c3ccccc3)CC2)CC1` [Example 96, 1-[(E)-3-(3,4-Dichloro-phenyl)-acryloyl]-4-[3-(4-hydroxy-4-phenyl-piperidin-1-yl)-ethyl]-[1,4]diazepan-5-one], the pIC50 is 5.94.

Consider `CC(C)N1CCN(CC(O)CN2CCN(C(=O)/C=C/c3ccc(Cl)c(Cl)c3)CCC2=O)CC1C` (racemic) [Example 301], for which the pIC50 is 6.01.

`C[C@@H]1CN(CCCN2CCN(C(=O)/C=C/c3ccc(Cl)c(Cl)c3)CCC2=O)CC[C@@H]1O` (racemic) [Example 253]: the pIC50 was 6.88.

`CNC(=O)C1CCN(CCCN2CCN(C(=O)/C=C/c3ccc(Cl)c(Cl)c3)CCC2=O)CC1` [Example 86, 1-(3-{4-[(E)-3-(3,4-Dichloro-phenyl)-acryloyl]-7-oxo-[1,4]diazepan-1-yl}-propyl)-piperidine-4-carboxylic acid methylamide]: the pIC50 was 5.96.

As for `C[C@H]1[C@H](O)CCCN1CC(O)CCN1CCN(C(=O)/C=C/c2ccc(Cl)c(Cl)c2)CCC1=O` (relative stereo) [Example 362], the pIC50 is 6.30.

Consider `O=C(C=Cc1ccc(Cl)c(Cl)c1)N1CCC(=O)N(CCNC2CC3CCC2C3)CC1` (racemic) [Example 110, (+/−)-4-[3-(Bicyclo[2.2.1]hept-2-ylamino)ethyl]-1-[(E)-3-(3,4-dichloro-phenyl)-acryloyl]-[1,4]diazepan-5-one], for which the negative logarithm of the IC50 (pIC50) is 6.19.

Turning to `CC(C)CN1CCN(CC(O)CN2CCN(C(=O)C=Cc3ccc(Cl)c(Cl)c3)CCC2=O)CC1` (racemic) [Example 325], the pIC50 is 6.13.

For `O=C(/C=C/c1ccc(Cl)c(Cl)c1)N1CCC(=O)N(CC(O)CN2CCC3(CCCO3)CC2)CC1` (racemic) [Example 326], the pIC50 is 6.00.

For `O=C(/C=C/c1ccc(Cl)c(Cl)c1)N1CCC(=O)N(CCCN2CC[C@H](CO)[C@@H](O)C2)CC1` (racemic) [Example 268, (rac,trans)-1-[(E)-3-(3,4-Dichloro-phenyl)-acryloyl]-4-[3-(3-hydroxy-4-hydroxymethyl-piperidin-1-yl)-propyl]-[1,4]diazepan-5-one], the pIC50 was 6.67.

`O=C(/C=C/c1ccc(Cl)c(Cl)c1)N1CCC(=O)N(CCCN2CCN(C3CCCC3)CC2)CC1` [Example 242]: the pIC50 was 6.91.

Turning to `N#CC1(c2ccccc2)CCN(CCCN2CCN(C(=O)/C=C/c3ccc(Cl)c(Cl)c3)CCC2=O)CC1` [Example 60, 1-(-3-{4-[(E)-3-(3,4-Dichloro-phenyl)-acryloyl]-7-oxo-[1,4]diazepan-1-yl}-propyl)-4-phenyl-piperidine-4-carbonitrile], the pIC50 was 7.64.

Regarding `CC1CCCN(CC(O)CCN2CCN(C(=O)/C=C/c3ccc(Cl)c(Cl)c3)CCC2=O)C1` (racemic) [Example 376], the pIC50 is 6.38.

With `COC1CCCN(CC(O)CN2CCN(C(=O)/C=C/c3ccc(Cl)c(Cl)c3)CCC2=O)C1` (racemic) [Example 283], the pIC50 was 6.51.

For `COC[C@H]1CCN(CCCN2CCN(C(=O)/C=C/c3ccc(Cl)c(Cl)c3)CCC2=O)C[C@H]1O` (racemic) [Example 267, (rac,cis)-1-[(E)-3-(3,4-Dichloro-phenyl)-acryloyl]-4-[3-(3-hydroxy-4-methoxymethyl-piperidin-1-yl)-propyl]-[1,4]diazepan-5-one], the pIC50 was 6.67.

Consider `O=C(/C=C/c1cccc(Cl)c1)N1CCC(=O)N(CCN2CCC(c3cccc(Cl)c3)CC2)CC1` [Example 34, 1-[(E)-3-(3-Chloro-phenyl)-acryloyl]-4-{2-[4-(3-chloro-phenyl)-piperidin-1-yl]-ethyl}-[1,4]diazepan-5-one], for which the pIC50 was 5.86.

In the case of `O=C(/C=C/c1ccc(Cl)c(Cl)c1)N1CCC(=O)N(CCCCN2CCCC(CO)C2)CC1` (racemic) [Example 425], the pIC50 is 7.05.

`COC(=O)NC1CCN(CCCN2CCN(C(=O)/C=C/c3ccc(Cl)c(Cl)c3)CCC2=O)CC1` [Example 244]: the pIC50 is 6.18.

With `O=C(/C=C/c1cccc(Cl)c1)N1CCC(=O)N(CCN2CCCC2)CC1` [Example 1, 1-[(E)-3-(3-Chloro-phenyl)-acryloyl]-4-(2-pyrrolidin-1-yl-ethyl)-[1,4]diazepan-5-one], the pIC50 was 6.17.

For the compound `CC1CCN(CCCN2CCN(C(=O)/C=C/c3ccc(Cl)c(Cl)c3)CCC2=O)CC1O` (racemic) [Example 238], the pIC50 is 7.27.

As to `O=C(/C=C/c1ccc(Cl)c(Cl)c1)N1CCC(=O)N(CCCN2CC[C@@H](F)[C@H](O)C2)CC1` (racemic) [Example 230, (rac,trans)-1-[(E)-3-(3,4-Dichloro-phenyl)-acryloyl]-4-[3-(4-fluoro-3-hydroxy-piperidin-1-yl)-propyl]-[1,4]diazepan-5-one], the pIC50 was 6.67.

As for `O=C(/C=C/c1ccc(F)c(Cl)c1)N1CCC(=O)N(CCCN2CCCC(CO)C2)CC1` (racemic) [Example 211], the pIC50 is 6.44.

On to `CC1CN(CC(O)CCN2CCN(C(=O)/C=C/c3ccc(Cl)c(Cl)c3)CCC2=O)CCC1O` (racemic) [Example 358], for which the pIC50 is 6.06.

For the compound `CC1C(O)CCCN1CCCN1CCN(C(=O)C=Cc2ccc(Cl)c(Cl)c2)CCC1=O` (mixture of isomers) [Example 225, (rac,trans)-1-[(E)-3-(3,4-Dichlorophenyl)-acryloyl]-4-[3-(3-hydroxy-2-methyl-piperidin-1-yl)-propyl]-[1,4]diazepan-5-one], the pIC50 was 6.61.

Turning to `O=C(/C=C/c1ccc(Cl)c(Cl)c1)N1CCC(=O)N(CCCN2CCC(c3cc[nH]n3)CC2)CC1` [Example 57, 1-[(E)-3-(3,4-Dichloro-phenyl)-acryloyl]-4-{3-[4-(1H-pyrazol-3-yl)-piperidin-1-yl]-propyl}-[1,4]diazepan-5-one], the negative logarithm of the IC50 (pIC50) was 6.66.

Consider `CC1(O)CCCN(CCCCN2CCN(C(=O)/C=C/c3ccc(Cl)c(Cl)c3)CCC2=O)C1` (racemic) [Example 431], for which the pIC50 is 6.35.
